This note sets out measurements from paper PMC6017415, “Carbamates as Potential Prodrugs and a New Warhead for HDAC Inhibition” (Molecules : A Journal of Synthetic Chemistry and Natural …, 2018).

In one assay the target is T1, recombinant human HDAC6 (Homo sapiens, UniProt Q9UBN7).
T1 construct: purchased BPS Biosciences (San Diego, CA, USA)
T1 sequence (Q9UBN7 1-1215): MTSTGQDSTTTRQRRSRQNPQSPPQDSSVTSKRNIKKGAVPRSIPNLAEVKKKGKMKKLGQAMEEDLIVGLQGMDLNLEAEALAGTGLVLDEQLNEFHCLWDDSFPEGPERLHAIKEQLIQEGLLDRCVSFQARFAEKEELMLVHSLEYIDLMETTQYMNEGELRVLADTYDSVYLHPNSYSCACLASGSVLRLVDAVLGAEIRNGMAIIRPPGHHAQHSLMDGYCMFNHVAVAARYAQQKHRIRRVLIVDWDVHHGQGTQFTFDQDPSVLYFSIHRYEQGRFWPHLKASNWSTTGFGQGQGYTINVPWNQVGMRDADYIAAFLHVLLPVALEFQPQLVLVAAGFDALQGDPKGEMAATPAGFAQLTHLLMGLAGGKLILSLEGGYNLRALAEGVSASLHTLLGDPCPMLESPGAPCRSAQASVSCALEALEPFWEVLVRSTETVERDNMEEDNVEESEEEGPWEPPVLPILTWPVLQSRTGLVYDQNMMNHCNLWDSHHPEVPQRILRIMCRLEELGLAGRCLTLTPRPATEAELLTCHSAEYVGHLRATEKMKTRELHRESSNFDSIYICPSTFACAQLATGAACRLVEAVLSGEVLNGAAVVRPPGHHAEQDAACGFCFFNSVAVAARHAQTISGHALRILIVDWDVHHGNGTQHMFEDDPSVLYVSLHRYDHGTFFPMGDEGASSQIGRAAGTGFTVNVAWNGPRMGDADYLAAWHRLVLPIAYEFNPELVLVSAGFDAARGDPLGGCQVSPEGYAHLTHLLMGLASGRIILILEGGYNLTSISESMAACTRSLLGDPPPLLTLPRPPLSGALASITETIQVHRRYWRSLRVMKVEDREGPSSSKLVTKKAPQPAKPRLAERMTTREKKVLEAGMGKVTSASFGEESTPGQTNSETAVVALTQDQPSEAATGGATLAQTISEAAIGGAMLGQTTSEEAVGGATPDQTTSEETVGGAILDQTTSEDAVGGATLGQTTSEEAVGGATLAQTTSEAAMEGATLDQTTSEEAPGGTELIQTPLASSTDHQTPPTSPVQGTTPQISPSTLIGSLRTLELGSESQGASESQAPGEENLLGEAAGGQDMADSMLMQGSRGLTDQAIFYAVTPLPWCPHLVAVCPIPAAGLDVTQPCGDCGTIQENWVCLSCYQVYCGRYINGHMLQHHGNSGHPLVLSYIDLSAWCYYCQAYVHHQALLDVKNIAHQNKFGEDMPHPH
As to the kind of experiment: HDAC6 in vitro fluorescence-based inhibition assay (ZMAL substrate). The conditions noted are these: recombinant human HDAC6, ZMAL 10.5 µM, 90 min 37 °C; for IC50: read-out: IC50 (µM) ± SE HDAC6. It is filed as biochemical. From the text: In order to investigate a potential subtype selectivity among different HDAC classes, we first tested them against the recombinant histone deacetylases HDAC1 (class I) and HDAC6 (class llb). […] To further address this issue, we also tested the respective compounds against the class l histone deacetylase HDAC8 (also see Table 1).
Recombinant human HDAC1 and 6 were purchased from BPS Biosciences (San Diego, CA, USA), and recombinant human HDAC8 was produced as described before. Inhibition tests of human HDAC1 and 6 were conducted using carboxybenzyl acetyllysine aminomethylcoumarin (ZMAL) as a substrate. […] For testing of HDAC8, the commercial Fluor de Lys drug discovery kit (BML-KI178) (Enzo Life Sciences, Lausen, Switzerland) was used according to the manufacturer’s instruction. Briefly, the test compound, Fluor de Lys-HDAC8 substrate (50 μM), and enzyme were incubated for 90 min at 37 °C with subsequent addition of 50 μL of Developer II (BML-KI176) (Enzo Life Sciences, Lausen, Switzerland) and further incubation for 45 min at 30 °C. In both assays, trichostatin A (2 μM) was used to stop the reaction. Fluorescence in both cases was measured in a plate reader (BMG Polarstar, BMG Labtech, Ortenberg, Germany) with excitation at λ = 390 nm and emission at λ = 460 nm.

Assay [1] relates to acetylation of histone H3 and tubulin in HL60 cells. Briefly: Western blot of acetylation levels of histone H3 and tubulin in HL60 cells. Format: cell-based, human. The note with it: 4 h. Here is the method:
An inhibition of deacetylation in this experiment is expected to lead to hyperacetylation of the respective proteins. Besides histone H3, acetylated tubulin was chosen as a target protein. As tubulin is only accepted as a target by HDAC 6 [21], this allows us to explore subtype selectivity in a cellular setting (see Figure 4).
HL60 cells were treated with the inhibitors in the given concentrations. Cells treated with dimethyl sulfoxide as a vehicle were used as controls. After an incubation time of 4 h, cells were transferred into 50-mL Falcon tubes and centrifuged (300× g, 5 min). The supernatant was removed, and the cells were washed with PBS, before they were transferred to 1.7-mL reaction tubes. The cells were lysated with Bio-Rad loading buffer, and the cell suspension was heated to 95 °C for 5 min. The proteins then were separated using a 15% SDS-polyacrylamide gel electrophoresis and transferred to a polyvinylidene fluoride (PVDF) membrane (Roti-PVDF, Carl Roth, Karlsruhe, Germany). Acetylation levels were detected using an anti-acetyl histone H3 antibody (Millipore, Billerica, MA, USA) and an anti-acetyl-α-tubulin antibody (Sigma Aldrich, St. Louis, MO, USA). An antibody directed against GAPDH (Sigma Aldrich) was used as a loading control.
For orientation: In western blotting, separated proteins are transferred to a membrane and probed.

As to `CC(C)NC(=O)ONC(=O)CCCCCCC(=O)Nc1ccccc1` [Compound 2a, [(8-Anilino-8-oxo-octanoyl)amino]N-isopropylcarbamate], at recombinant human HDAC6, the “IC50 (µM) ± SE HDAC6” value is reported as “low micromolar range” and the IC50 is 2.11 ± 0.02 µM.

On to `O=C(CCCCCCC(=O)Nc1ccccc1)NOC(=O)NCc1ccccc1` [Compound 2b, [(8-Anilino-8-oxo-octanoyl)amino]N-benzylcarbamate], for which, on recombinant human HDAC6, the IC50 came to 0.637 ± 0.002 µM.

`CCNC(=O)ONC(=O)CCCCCCC(=O)Nc1ccccc1` [Compound 2c, [(8-Anilino-8-oxo-octanoyl)amino]N-ethylcarbamate]: on recombinant human HDAC6, the half-maximal inhibitory concentration (IC50) turned out to be 0.58 ± 0.01 µM.

Regarding `O=C(CCCCCCC(=O)Nc1ccccc1)NOC(=O)Nc1ccccc1` [Compound 2d, [(8-Anilino-8-oxo-octanoyl)amino]N-phenylcarbamate], the half-inhibitory concentration (IC50) at recombinant human HDAC6 worked out at 0.187 ± 0.007 µM. Further, in assay [1], the “effect on H3 and tubulin acetylation levels” value is recorded as “in the same range as SAHA”.

For orientation: IC50 means the point on the concentration scale where inhibition reaches its midpoint.
